Experiments:
[1] = tested on: Acyrthosiphon pisum aphids; test: Aphid survival monitored daily; format: in vivo
Buchnera = test: Buchnera/aphid DNA copy number by qPCR; format: in vivo, Acyrthosiphon pisum
E. coli DH5a = test: Antibiotic coating and penetration of corn kernels (E. coli growth on LB plates); format: cell-based, Escherichia coli; conditions: kernels soaked 1.5 hours in 2.5 or 0.25 mg/ml ciprofloxacin
[2] = tested on: Sitophilus zeamais weevils; test: Weevil survival; format: in vivo; conditions: adult mating pairs; 250 μg/ml or 2.5 mg/ml ciprofloxacin; 18 days
Description: (§1) Sitophilus maize weevils (Sitophilus zeamais) were reared on organic corn at 27.5° C. and 70% relative humidity. Prior to being used for weevil rearing, corn was frozen for 7 days and then tempered to 10% humidity with sterile water. […] Ciprofloxacin (Sigma) stock solutions were made at 25 mg/ml in 0.1 N HCl, sterilized by passing through a 0.22 μm syringe filter, and stored at −20° C. For treatments, the appropriate amount of stock solution was diluted in sterile water.
(§2) Weevil survival was monitored daily for 18 days, after which DNA was extracted from the remaining weevils in each group. Briefly, the weevil body was surface sterilized by dipping the weevil into a 6% bleach solution for approximately 5 seconds. Weevils were then rinsed in sterile water and DNA was extracted from each individual […] using a DNA extraction kit (Qiagen, DNeasy kit) according to manufacturer's instructions. […]; SEQ ID NO: 245). […]; SEQ ID NO: 247) (Login et al., 2011). qPCR was performed using a qPCR amplification ramp of 1.6 degrees C./s and the following conditions: 1) 95° C. for 10 minutes, 2) 95° C. for 15 seconds, 3) 57° C. for 30 seconds, 4) repeat steps 2-3 40×, 5) 95° C. for 15 seconds, 6) 55° C. for 1 minute, 7) ramp change to 0.15 degrees C./s, 8) 95° C. for 1 second. qPCR data was analyzed using analytic (Thermo Fisher Scientific, QuantStudio Design and Analysis) software.

[3] = tested on: Sitophilus zeamais weevils; test: Weevil reproduction (emergence of F1 offspring); conditions: 2.5 mg/ml ciprofloxacin; till day 43
[4] = tested on: Sitophilus primary endosymbiont (SPE, Candidatus Sodalis pierantonius); test: SPE levels in weevils by qPCR; format: in vivo, Sitophilus zeamais; conditions: for SPE amount, fold higher in water-treated than in treated weevils: F0 adults, 18 days
Description: as §1, §2

[5] = tested on: Acyrthosiphon pisum aphids; test: Aphid fecundity (offspring counts); format: in vivo; conditions: eNASCO, control approximately 7
Description: (§3) In addition, the developmental stage (1st, 2nd, 3rd, 4th, 5th instar) was determined daily throughout the experiment. Once an aphid reached the 4th instar stage, they were given their own artificial feeding system in a deep petri dish so that fecundity could be monitored once they reached adulthood.
For adult aphids, new nymphs were counted daily and then discarded. At the end of the experiments, fecundity was determined as the mean number of offspring produced daily once the aphid reached adulthood. Pictures of aphids were taken throughout the experiment to evaluate size differences between treatment groups.
as §3, with “5th, and 5R (5th that has reproduced)” for “5th”
For adult aphids, new nymphs were counted daily and then discarded. At the end of the experiments, fecundity was measured in two ways: 1) the mean day at which the first offspring for the treatment group was determined and 2) the mean number of offspring produced daily once the aphid reached adulthood. […]
In addition, the developmental stage (1st, 2nd, 3rd, 4th, 5th instar) was determined daily throughout the experiment. […]

[6] = tested on: Anopheles coluzzii mosquitoes; test: Mosquito survival after azithromycin blood meals; format: in vivo; conditions: blood meals with 0.1, 1 or 5 μg/ml azithromycin; vs negative control
Asaia = Asaia quantification by qPCR in mosquito midguts; format: in vivo, Anopheles coluzzii; conditions: blood meals with 0.1, 1 or 5 μg/ml azithromycin, three meals; vs control
[7] = LSR-1, through plants, artificial diet without essential amino acids + 100 μg/ml rifampicin

O=C/C=C/c1ccccc1 [trans-cinnemaldehyde]
survival rates of aphids ([1]; LSR-1, 0.05%, 0.5%, and 5% trans-cinnemaldehyde, vs water): significantly lower | Buchnera/aphid DNA copies, fold less than control (Buchnera; LSR-1, 0.5 and 5% trans-cinnemaldehyde, 3 days): ~870 fold

O=C(O)c1cn(C2CC2)c2cc(N3CCNCC3)c(F)cc2c1=O [ciprofloxacin]
bacterial growth on plate with entire soaked corn kernel (E. coli DH5a): no bacteria grew | weevil survival [2]: all weevils remained alive | F1 offspring emerged [3]: much less offspring | SPE amount, fold higher in water-treated than in treated weevils ([4]; 250 ug/ml ciprofloxacin): approximately 4 fold | SPE amount, fold higher in water-treated than in treated weevils ([4]; 2.5 mg/ml ciprofloxacin): ~8 fold | SPE levels, fold higher in water-treated than in treated F1 weevils ([4]; F1 weevils dissected from kernels, 2.5 mg/ml ciprofloxacin): approximately 4 fold

CC(C)(CO)[C@@H](O)C(=O)NCCCO [pantothenol]
survival rate of aphids ([1]; eNASCO, leaf coating, 10 uM pantothenol, p=0.0019): lower survival rates than aphids placed on coated leaves with the control solution | survival rate of aphids ([1]; eNASCO, through plants, 10 or 100 uM pantothenol): negatively affected aphid fitness | mean number of offspring per day ([5]; 10 uM pantothenol): approximately 4 offspring/day | mean number of offspring per day ([5]; 100 uM pantothenol): ~5 offspring/day | Buchnera/aphid DNA copy number (Buchnera; eNASCO, 10 or 100 uM pantothenol, 8 days): does not affect Buchnera/aphid DNA copy number directly

Cc1cc2c(C(C)C)c(O)c(O)c(C=O)c2c(O)c1-c1c(C)cc2c(C(C)C)c(O)c(O)c(C=O)c2c1O [gossypol, gossypol acetic acid]
time after which aphids began dying ([1]; through plants, 0.5% gossypol): 2 days | Buchnera/aphid DNA copies, fold less than control (Buchnera; through plants, 0.25 and 0.5% gossypol, 5 or 13 days): ~4 fold

CC(=O)CCC(=O)O [levulinic acid]
survival of aphids ([1]; eNASCO, 0.3% levulinic acid, 11-day experiment): survival was significantly less | Buchnera/aphid DNA copies, fold less than control (Buchnera; eNASCO, 0.03 or 0.3% levulinic acid in water, 7 days): ~6 fold

CO[C@H]1/C=C/O[C@@]2(C)Oc3c(C)c(O)c4c(O)c(c(/C=N/N5CCN(C)CC5)c(O)c4c3C2=O)NC(=O)/C(C)=C\C=C\[C@H](C)[C@H](O)[C@@H](C)[C@@H](O)[C@@H](C)[C@H](OC(C)=O)[C@@H]1C [rifampicin]
time after which aphids began dying [1, 7]: 1 days | time by which all aphids succumbed to treatment [1, 7]: ≤ 9 days | Buchnera/aphid DNA copies, fold less than control (Buchnera; LSR-1, through plants, 100 μg/ml rifampicin, 7 days): ~4 fold

CC[C@H]1OC(=O)[C@H](C)[C@@H](O[C@H]2C[C@@](C)(OC)[C@@H](O)[C@H](C)O2)[C@H](C)[C@@H](O[C@@H]2O[C@H](C)C[C@H](N(C)C)[C@H]2O)[C@](C)(O)C[C@@H](C)CN(C)[C@H](C)[C@@H](O)[C@]1(C)O [azithromycin]
survival rate of mosquitoes [6]: decreased compared to the control | Asaia specific genes (16S rDNA relative to S7, qPCR) (Asaia): reduction of Asaia specific genes

— patent publication US12018049B2, “Compositions and related methods for controlling vector-borne diseases” (priority 2017, dated 2024)
